Assay results taken from the METLIN SMRT retention time set (Domingo-Almenara et al. 2019).

Assay: gradient 5% acetonitrile 3 min, to 50% in 2 min, to 85% in 15 min, held 3 min, 100 µL/min
Conditions: column: Zorbax Extend-C18 2.1 x 50 mm; eluents: water / acetonitrile, 0.1% formic acid
Procedure, shortened: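 Each retention time is based on an adduct peak selected computationally and verified by manual inspection. Measurements used HPLC–quadrupole time-of-flight mass spectrometry in positive and negative ionization mode on mixtures of ~100 pure standards. Chromatography ran on a Zorbax Extend-C18 column (2.1 × 50 mm, 1.8 μm) at 100 μL/min with water and acetonitrile, each containing 0.1% formic acid, and dead and dwell volumes of 40 μL and 900 μL.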

| Compound | RP-LC retention time [s] |
| --- | --- |
| O=C(Cn1c(=O)c2cccn2c2ccccc21)Nc1cccc(Cl)c1 | 904 |
| O=C(COc1ccccc1)N1CCCCC1c1nncn1CC1CC1 (centres undefined) | 731 |
| CCn1cnc(S(=O)(=O)N2CCC(C(=O)Nc3ccc4c(c3)OCO4)CC2)c1 | 688 |
| CCOC(=O)CCNC(=O)NCC1CC(=O)N(c2ccc(F)cc2)C1 (centres undefined) | 629 |
| CCN(CC)CCNC(=O)C(C)n1c2ccccc2c2cnn(C)c(=O)c21 (centres undefined) | 609 |
| COc1ccc(Br)cc1Cn1nnc(C(=O)NCc2cccs2)c1N | 825 |
| COc1ccc(N2CCCn3c2nc2c3c(=O)n(C)c(=O)n2C)cc1 | 568 |
| O=C1COc2cc(S(=O)(=O)N3CCC(C(=O)NC4CCCCC4)CC3)c(Cl)cc2N1 | 772 |
| CC(C(=O)NCCN(C)Cc1ccccc1)n1c(=O)c(C(F)(F)F)nc2ccccc21 (centres undefined) | 735 |
| COC(=O)c1ccc(NC(=O)C(=O)NCC2CCN(C(=O)Oc3ccccc3)CC2)cc1 | 868 |
| CC1CCN(S(=O)(=O)c2ccc3nn(CCc4ccccc4)c(=O)n3c2)CC1 | 1020 |
| Cc1cccc2c(C(=O)N(C)C)cc(=O)[nH]c12 | 597 |
| Cc1cc(C)n2nc(SCC(=O)NCc3ccccc3Cl)nc2n1 | 698 |
| CCOc1cccc(-c2noc(CCn3nc(-c4ccc(F)cc4)ccc3=O)n2)c1 | 1060 |
| Cc1cc(NC(=O)c2sc(-c3cn(C)c4ncccc34)nc2C)ccc1F | 979 |
| Cc1ccc(N2C(=O)C3N=NN(c4ccc(F)cc4)C3C2=O)cc1C (centres undefined) | 1050 |
| CCN(CC)CCNC(=O)c1c(C)oc2c1C(=O)c1ccccc1C2=O | 635 |
| Clc1ccc(-c2cc3c(N4CCN(C5CCCCC5)CC4)nccn3n2)cc1 | 806 |
| Cc1cc(=O)n(CC(=O)Nc2ccc3c(c2)OCCO3)c(N2CCCC2)n1 | 620 |
| CC(C)CC(=O)NCC1Cn2cccc2C(=O)N1C (centres undefined) | 620 |
| CCN(C(=O)c1ccccc1Cl)c1nc(-c2ccccc2)cs1 | 1310 |
| COc1ccc(-c2noc(C3CCCN3C(=O)c3cc(F)ccc3F)n2)cc1OC (centres undefined) | 900 |
| O=C(Cn1c(=O)cc(-c2nc(C3CC3)no2)c2ccccc21)NC1CCCCC1 | 932 |
| CC1CCN(S(=O)(=O)c2ccc(-c3nnc(C(=O)NCC(C)c4ccccc4)o3)cc2)CC1 (centres undefined) | 1140 |
| CCN(CCNC(=O)c1cc(=O)n(C)c2c1c(=O)n(C)c(=O)n2C)Cc1ccccc1 | 646 |

| Compound | RP-LC retention time [s] |
| --- | --- |
| Cc1ccc(NC(=O)c2[nH]c3cc(C)sc3c2CN2CCOCC2)c(Cl)c1 | 731 |
| CCC(C)NC(=O)Cn1c(=O)c2cnc(-c3ccccc3)nc2n(C)c1=O (centres undefined) | 854 |
| CN1C(=O)CCC2(CNC(=O)Nc3ccccc3F)CCCC=C12 (centres undefined) | 797 |
| CCCn1nc(CNC(=O)c2cccs2)c2ccccc21 | 785 |
| Cc1ccc(NC(=O)N2CCC3(C2)c2nc[nH]c2CCN3C)c(C)c1 (centres undefined) | 568 |
| CCc1cccc(C)c1Nc1c(-c2ccccc2O)nc2ncccn12 | 907 |
| O=C(Nc1ccc(F)cc1F)C1CCc2nc(N3CCOCC3)ncc2C1 (centres undefined) | 734 |
| COc1ccc(-c2nc(C)c3c(n2)N(Cc2ccco2)C(=O)CC3)cc1 | 975 |
| Cc1noc(-c2ccnc(-n3cnc(C(=O)NCc4ccccc4F)c3)c2)n1 | 833 |
| CCOC(=O)c1ccc(NC(=O)Cn2c(=O)nc(N3CCC(C)CC3)c3ccccc32)cc1 | 872 |
| CCN(CC)c1nc(C(=O)N2CCN(C(C)C)CC2)nc2nc(C)cc(C)c12 | 543 |
| CCc1nc2c(=O)n(CC(=O)N3CCN(c4ccccc4)CC3)nc(C)c2s1 | 765 |
| CC(=O)Nc1ccc(C(=O)N(C2CC2)C2(C(=O)NCc3ccccc3)CCN(C(C)=O)CC2)cc1 | 692 |
| Nc1cc(Nc2ccc(Br)cc2)nc(N)n1 | 688 |
| Cc1cccc2c(=O)n(C3CCN(S(=O)(=O)c4ccccc4)CC3)cnc12 | 921 |
| CC(C)CNC(=O)c1ccc2c(c1)CCCN2S(C)(=O)=O | 774 |
| CCNC(=O)c1cc(-c2ccccc2)n(C)c1C | 805 |
| Cc1nn(C)c(C)c1S(=O)(=O)N1CCCC(Cc2nncn2-c2ccccc2)C1 (centres undefined) | 604 |
| O=C(Nc1nc(-c2cccc3ccccc23)cs1)C1CCCO1 (centres undefined) | 978 |
| O=C(Nc1ccc(F)cc1)N1CCCC(Cn2c(C3CC3)nc3cccnc32)C1 (centres undefined) | 675 |
| CCCN1CCn2cc(S(=O)(=O)Nc3ccc(OC)cc3)cc2C1=O | 715 |
| COc1cccc(-n2c(=O)c3sccc3n(Cc3nc(-c4cccc(C)c4)no3)c2=O)c1 | 978 |
| COc1ccccc1-c1noc(C2CCCN2C(=O)Cc2ccc(F)cc2)n1 (centres undefined) | 866 |
| Cn1cc(C2=CCN(C(=O)c3cc(F)cc(F)c3)CC2)c2cccnc21 | 846 |
| O=C(NCc1ccc(F)cc1)c1nnc(-c2ccc(S(=O)(=O)N3CCOCC3)cc2)o1 | 910 |

The next lines start with the values.

| RP-LC retention time [s] | Compound |
| --- | --- |
| 1070 | COc1cccc(Cn2c(=O)c3sccc3n(Cc3nc(-c4ccc(F)cc4)no3)c2=O)c1 |
| 905 | COC(=O)c1cccc(Nc2c(-c3cccc(Cl)c3)nc3cnccn23)c1 |
| 900 | CC1CCCCN1S(=O)(=O)c1ccc2c(c1)CCC(=O)N2CC(=O)NCCc1ccccc1 (centres undefined) |
| 608 | Cc1ccc(-c2nnc(N3CCC(C(=O)NCCCN4CCOCC4)CC3)o2)cc1 |
| 988 | CC(=O)c1cccc(NC(=O)c2sc3ccccc3c2Cl)c1 |
| 609 | Cc1ccccc1CN1CCN(CC(=O)N2CCN(Cc3ccccc3)CC2)C(=O)C1=O |
| 703 | Cc1noc2nc(CCC(=O)NCCCN3CCc4ccccc4C3)nc(N3CCC(C)CC3)c12 |
| 664 | CN(C)c1cccc(C(=O)NC2CCN(c3cc(-c4ccccc4)[nH]n3)C2)c1 (centres undefined) |
| 814 | COc1ccc(NC(=O)CSc2cc(N3CCN(c4ccccc4OC)CC3)ncn2)cc1OC |
| 940 | Cc1cc(C)n(Cc2nc(-c3ccc(NC(=O)c4ccsc4)cc3)oc2C)n1 |
| 990 | Cn1nc(-c2nnc(-c3ccc(F)cc3)o2)c2c1CCN(S(=O)(=O)c1ccccc1Cl)C2 |
| 923 | Cc1cc(N2CCC(NC(=O)Nc3ccc(Cl)cc3F)C2=O)ccc1F (centres undefined) |
| 600 | CC(CCNC(=O)c1ccc(NC(=O)C2=CSCCO2)cc1)N1CCCC1 (centres undefined) |
| 618 | COc1cc(Br)c(C2C(C(=O)N3CCOCC3)=C(C)NC3=C2C(=O)CCC3)cc1OC (centres undefined) |
| 677 | CC(=O)Nc1ccc(NC(=O)c2ccc3nc(-c4ccc(Cl)cc4)cn3c2)cc1 |
| 842 | COc1ccc(NC(=O)N2CCCC2c2nc(-c3cccc(F)c3)no2)cc1 (centres undefined) |
| 1200 | COc1nc2ccccc2nc1N1CCCC(C(=O)Nc2cc(F)ccc2F)C1 (centres undefined) |
| 857 | O=C(Nc1nc(-c2ccc3c(c2)OCCO3)cs1)c1ccc2ncsc2c1 |
| 591 | CCOCCCNC(=O)c1c2c(cn(-c3ccccc3)c1=O)C(=O)CC(C)(C)C2 |
| 591 | CC(C)NC(=O)Nc1ccccc1NC(=O)c1cccnc1 |

| RP-LC retention time [s] | Compound |
| --- | --- |
| 729 | COc1ccc(-c2cn3c(CC(=O)Nc4ccc(F)cc4)csc3n2)cc1OC |
| 786 | CCc1ccc(NC(=O)Cn2c(=O)c3cc(C)nn3c3ncccc32)cc1 |
| 858 | O=C(C1=CN(c2ccc(F)cc2)c2cc(F)ccc2S1(=O)=O)N1CCCCC1 |
| 774 | Cc1cccc(N2CCN(c3cc(C(=O)O)c4cc(NC(=O)C(C)(C)C)ccc4n3)CC2)c1C |
| 750 | COc1cc2ncnc(Nc3cccc(Cl)c3)c2cc1OC |
| 612 | Cc1cc(Nc2ccc(C(=O)NC3CC3)cc2)n2nc(-c3cccnc3)nc2n1 |
| 978 | Cc1ccc(S(=O)(=O)NCCc2cn(CC(C)C)c3ncccc23)cc1C |
| 880 | O=C(NCc1cccs1)c1ccc2c(c1)N(C(=O)c1ccc(F)cc1)CC2 |
| 1120 | CCc1ccc(CNC(=O)C2CCN(c3cc(Oc4ccc(CC)cc4)ncn3)CC2)cc1 |
| 664 | O=C(c1cnn(-c2cccc(F)c2)c1-n1cccc1)N1CCN(c2ccccn2)CC1 |
| 697 | CCC(=O)N1CCc2cc(C(=O)N3CCN(c4ncccn4)CC3)ccc21 |
| 780 | CCCC(=O)N1CCCN(C2=NS(=O)(=O)C(c3ccc(F)cc3)=C2C)CC1 |
| 1020 | Cc1ccc(Nc2c(-c3ccc(Cl)cc3)nc3ncccn23)cc1Cl |
| 738 | COCCn1c(=O)c2c(nc3n2CCCN3c2ccccc2)n(C)c1=O |
| 574 | COCCCNC(=O)C1CCN(c2cnc3nc(C)c(C)nc3c2)CC1 |
| 894 | CCOC(=O)c1[nH]c(C)c(CN(Cc2ccco2)C(=O)c2ccc(N(C)C)cc2)c1C |
| 684 | c1ccc(-c2noc(-c3ccccc3OC3CCNC3)n2)cc1 (centres undefined) |
| 815 | O=C(NC1CCCCC1)c1ccc(-n2cccn2)nc1 |
| 655 | CN1C(=O)C2CCCCN2c2ccc(C(=O)NCCCN(C)C3CCCCC3)cc21 (centres undefined) |
